The values below come from ChEMBL document CHEMBL1143561, “Virtual docking approaches to protein kinase B inhibition” (J Med Chem, 2005).

The target of this assay is RAC-alpha serine/threonine-protein kinase (Homo sapiens, UniProt P31749). Description: Inhibition of protein kinase B alpha (Akt1) in fluorescent enzymatic assay.

Each structure is given as a SMILES string.

RAC-alpha serine/threonine-protein kinase, sequence (P31749 whole entry): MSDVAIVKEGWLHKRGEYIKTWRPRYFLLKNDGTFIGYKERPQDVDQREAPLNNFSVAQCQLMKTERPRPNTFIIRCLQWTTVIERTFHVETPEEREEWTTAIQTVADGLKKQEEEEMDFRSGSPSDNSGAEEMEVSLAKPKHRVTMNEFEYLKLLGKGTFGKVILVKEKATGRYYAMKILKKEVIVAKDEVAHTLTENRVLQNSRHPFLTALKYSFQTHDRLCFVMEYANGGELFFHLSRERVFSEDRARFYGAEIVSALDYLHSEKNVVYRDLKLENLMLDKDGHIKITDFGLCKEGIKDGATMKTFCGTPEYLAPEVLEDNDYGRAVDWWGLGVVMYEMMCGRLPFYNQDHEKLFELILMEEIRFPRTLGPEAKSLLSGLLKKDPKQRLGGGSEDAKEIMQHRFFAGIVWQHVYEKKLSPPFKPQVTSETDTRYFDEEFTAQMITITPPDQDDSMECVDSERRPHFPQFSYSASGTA

The compound `CC1=C(C#N)c2nc(N)c(C#N)c(C)c2/C1=C/c1ccc(-c2cccc(C(=O)O)c2)o1` displayed an IC50 of 60.2 µM.
